This test deals with CD2F1 mice, L1210 leukemia ip, survival T/C. As to the kind of experiment: NCI In Vivo Anticancer Drug Screen. Data for tumor model L1210 Leukemia (intraperitoneal) in CD2F1 (CDF1) mice. The note with it: higher = longer survival. The essentials: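 Tumor-bearing mice (transplanted tumor) were split into treated and vehicle control groups, and the measured endpoint of each treated group was divided by that of its vehicle controls.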

Where [1] appears, read: endpoint: mean survival time, dose: 100.0 mg/kg/injection, schedule: Q04DX003 (ip), vehicle: saline with Tween-80.
[2] abbreviates: endpoint: mean survival time, dose: 200.0 mg/kg/injection, schedule: Q04DX003 (ip), vehicle: saline with Tween-80.
The mark [3] stands for this setting: endpoint: mean survival time, dose: 400.0 mg/kg/injection, schedule: Q04DX003 (ip), vehicle: saline with Tween-80.
The mark [4] stands for this setting: endpoint: mean survival time, dose: 50.0 mg/kg/injection, schedule: Q01DX009 (ip), vehicle: saline with Tween-80.
[5] abbreviates: endpoint: mean survival time, dose: 100.0 mg/kg/injection, schedule: Q01DX009 (ip), vehicle: saline with Tween-80.
[6] abbreviates: endpoint: mean survival time, dose: 200.0 mg/kg/injection, schedule: Q01DX009 (ip), vehicle: saline with Tween-80.
Where [7] appears, read: endpoint: mean survival time, dose: 400.0 mg/kg/injection, schedule: Q01DX009 (ip), vehicle: saline with Tween-80.
[8] abbreviates: endpoint: mean survival time, dose: 100.0 mg/kg/injection, schedule: Q01DX009 (ip), vehicle: saline.
Where [9] appears, read: endpoint: mean survival time, dose: 200.0 mg/kg/injection, schedule: Q01DX009 (ip), vehicle: saline.

Where “and” joins values, the source holds several entries; their conditions need not be identical. Identical values can stand only once. Inconclusive results and toxic doses are left out.

In the case of `S=C(NC1CCCCC1)N1CCC(CCCC2CCN(C(=S)NC3CCCCC3)CC2)CC1`, the T/C by setting is: under setting [1], 87 % of control; under setting [2], 94 % of control; under setting [3], 102 % of control.
Regarding `O=C1C2C(C(=O)N1c1ccc([N+](=O)[O-])cc1)C1c3ccccc3C2C2CCCCN21` (stereo not given), the T/C by setting is: (endpoint: mean survival time, dose: 100.0 mg/kg/injection, schedule: Q01DX001 (ip), vehicle: Klucel (hydroxypropylcellulose) (HPC)) 93 % of control; (endpoint: mean survival time, dose: 200.0 mg/kg/injection, schedule: Q01DX001 (ip), vehicle: Klucel (hydroxypropylcellulose) (HPC)) 101 % of control; (endpoint: mean survival time, dose: 400.0 mg/kg/injection, schedule: Q01DX001 (ip), vehicle: Klucel (hydroxypropylcellulose) (HPC)) 100 % of control.
As to `CN1CCN(c2ccccc2N)CC1`, the T/C is 108 % of control (endpoint: mean survival time, dose: 5.0 mg/kg/injection, schedule: Q01DX009 (ip), vehicle: saline with Tween-80); 108 % of control (endpoint: mean survival time, dose: 10.0 mg/kg/injection, schedule: Q01DX009 (ip), vehicle: saline with Tween-80); 102 % of control (endpoint: mean survival time, dose: 20.0 mg/kg/injection, schedule: Q01DX009 (ip), vehicle: saline with Tween-80).
In the case of `OCc1ccc(O)cc1`, the T/C reads like this: (endpoint: mean survival time, dose: 100.0 mg/kg/injection, schedule: Q04DX003 (ip), vehicle: other) 100 % of control; (endpoint: mean survival time, dose: 200.0 mg/kg/injection, schedule: Q04DX003 (ip), vehicle: other) 95 % of control; (endpoint: mean survival time, dose: 400.0 mg/kg/injection, schedule: Q04DX003 (ip), vehicle: other) 94 % of control.
In the case of `CC(=O)Nc1ccc(S(=O)(=O)F)cc1`, the T/C is, setting by setting: under setting [4], 93 % of control; (endpoint: mean survival time, dose: 100.0 mg/kg/injection, schedule: Q01DX001 (ip), vehicle: saline with Tween-80) 91 % of control; under setting [5], 93 % of control; under setting [1], 94 % of control; (endpoint: mean survival time, dose: 200.0 mg/kg/injection, schedule: Q01DX001 (ip), vehicle: saline with Tween-80) 100 % of control; under setting [2], 102 % of control.
Consider `[NH-]NC(=S)[S-].[NH-]NC(=S)[S-].[Pd]`, for which the T/C under setting [1] is 91 % of control.
For the compound `COc1ccc(C(=O)CCC(=O)O)c(C)c1`, the T/C (endpoint: mean survival time, dose: 100.0 mg/kg/injection, schedule: Q04DX003 (ip), vehicle: saline) was 96 % of control; the T/C (endpoint: mean survival time, dose: 200.0 mg/kg/injection, schedule: Q04DX003 (ip), vehicle: saline) was 94 % of control; the T/C (endpoint: mean survival time, dose: 400.0 mg/kg/injection, schedule: Q04DX003 (ip), vehicle: saline) was 92 % of control.
For the compound `O=C(Nc1ccc(Nc2ccc(NC(=O)c3ccccc3)c3c2C(=O)c2ccccc2C3=O)c2c1C(=O)c1ccccc1C2=O)c1ccccc1`, the T/C under setting [5] was 95 % of control; the T/C under setting [1] is 108 % of control; the T/C under setting [6] was 95 % of control; the T/C under setting [2] is 100 % of control; the T/C under setting [7] is 100 % of control; the T/C under setting [3] was 102 % of control.
As for `C[C@@]12C(=O)OC(=O)[C@]1(C)[C@H]1CC[C@@H]2O1`, the T/C reads like this: (endpoint: median survival time, dose: 0.06 mg/kg/injection, schedule: Q01DX009 (ip), vehicle: Klucel (hydroxypropylcellulose) (HPC)) 110 % of control; (endpoint: median survival time, dose: 0.12 mg/kg/injection, schedule: Q01DX009 (ip), vehicle: Klucel (hydroxypropylcellulose) (HPC)) 102 % of control; (endpoint: median survival time, dose: 0.25 mg/kg/injection, schedule: Q01DX009 (ip), vehicle: Klucel (hydroxypropylcellulose) (HPC)) 103 % of control; (endpoint: median survival time, dose: 0.5 mg/kg/injection, schedule: Q01DX009 (ip), vehicle: Klucel (hydroxypropylcellulose) (HPC)) 104 % of control; (endpoint: median survival time, dose: 1.0 mg/kg/injection, schedule: Q01DX009 (ip), vehicle: Klucel (hydroxypropylcellulose) (HPC)) 92 % of control.
With `Cc1ccc(NC(=O)CCl)cc1Cl`, the T/C is, setting by setting: under setting [4], 95 % of control; under setting [5], 90 % of control; under setting [1], 98 % of control; under setting [2], 89 % of control.
Consider `Oc1ccc(N=Cc2ccccc2O)cc1`, for which the T/C reads like this: (endpoint: mean survival time, dose: 178.0 mg/kg/injection, schedule: Q04DX003 (ip), vehicle: carboxymethylcellulose (CMC)) 101 % of control; (endpoint: mean survival time, dose: 267.0 mg/kg/injection, schedule: Q04DX003 (ip), vehicle: carboxymethylcellulose (CMC)) 102 % of control; (endpoint: mean survival time, dose: 400.0 mg/kg/injection, schedule: Q04DX003 (ip), vehicle: carboxymethylcellulose (CMC)) 98 % of control; (endpoint: mean survival time, dose: 600.0 mg/kg/injection, schedule: Q04DX003 (ip), vehicle: carboxymethylcellulose (CMC)) 101 % of control.
Take `CC1CCCCCC(=O)c2c(O)cc(O)cc2CC(=O)O1` (stereo not given): the T/C (endpoint: mean survival time, dose: 100.0 mg/kg/injection, schedule: Q01DX001 (ip), vehicle: other) is 95 % of control; the T/C (endpoint: mean survival time, dose: 200.0 mg/kg/injection, schedule: Q01DX001 (ip), vehicle: other) was 118 % of control; the T/C (endpoint: mean survival time, dose: 400.0 mg/kg/injection, schedule: Q01DX001 (ip), vehicle: other) is 100 % of control.
Turning to `OCCN=c1c2ccccc2n(O)c2c1ccc1ccccc12`, the T/C reads like this: under setting [4], 104 % of control; under setting [5], 112 % of control; under setting [6], 108 % of control.
Regarding `Nc1nc(N)c2nc(CN(CCO)c3ccc(C(=O)NC(CCC(=O)O)C(=O)O)cc3)cnc2n1` (stereo not given), the T/C reads like this: (endpoint: mean survival time, dose: 2.0 mg/kg/injection, schedule: Q01DX009 (ip), vehicle: Klucel (hydroxypropylcellulose) (HPC)) 162 % of control; (endpoint: mean survival time, dose: 4.0 mg/kg/injection, schedule: Q01DX009 (ip), vehicle: Klucel (hydroxypropylcellulose) (HPC)) 190 % of control; (endpoint: mean survival time, dose: 8.0 mg/kg/injection, schedule: Q01DX009 (ip), vehicle: Klucel (hydroxypropylcellulose) (HPC)) 171 % of control.
With `O=c1ccnc(C(F)(F)F)[nH]1`, the T/C by setting is: under setting [8], 101 % of control; under setting [9], 95 % of control.
For `CC(=O)NCC(O)C(O)C(O)C(O)CO` (stereo not given), the T/C was 96 % of control under setting [8]; 98 % of control under setting [9]; 110 % of control (endpoint: mean survival time, dose: 400.0 mg/kg/injection, schedule: Q01DX009 (ip), vehicle: saline).
Consider `COc1ccc(CC(N)C(=O)OCc2ccccc2)cc1N(CCCl)CCCl` (stereo not given), for which the T/C runs as follows: (endpoint: mean survival time, dose: 3.0 mg/kg/injection, schedule: Q01DX009 (ip), vehicle: saline) 177 % of control; (endpoint: mean survival time, dose: 6.0 mg/kg/injection, schedule: Q01DX009 (ip), vehicle: saline) 118 % of control.
In the case of `COC(=O)c1ccc(Cl)nc1`, the T/C (endpoint: mean survival time, dose: 75.0 mg/kg/injection, schedule: Q04DX003 (ip), vehicle: saline with Tween-80) is 106 % of control; the T/C under setting [5] was 98 % of control; the T/C (endpoint: mean survival time, dose: 150.0 mg/kg/injection, schedule: Q04DX003 (ip), vehicle: saline with Tween-80) was 106 % of control; the T/C under setting [6] is 97 % of control; the T/C (endpoint: mean survival time, dose: 300.0 mg/kg/injection, schedule: Q04DX003 (ip), vehicle: saline with Tween-80) is 100 % of control; the T/C under setting [7] was 87 % of control.
With `CO[C@@]12[C@@H]3N[C@@H]3CN1C1=C(C(=O)C(N3CCCC3)=C(C)C1=O)[C@@H]2COC(N)=O`, the T/C reads like this: (endpoint: median survival time, dose: 3.12 mg/kg/injection, schedule: Q01DX001 (ip), vehicle: saline with Tween-80) 165 % of control; (endpoint: median survival time, dose: 6.26 mg/kg/injection, schedule: Q01DX001 (ip), vehicle: saline with Tween-80) 151 % of control; (endpoint: median survival time, dose: 12.0 mg/kg/injection, schedule: Q01DX001 (ip), vehicle: saline with Tween-80) 152 % of control and 197 % of control; (endpoint: median survival time, dose: 12.5 mg/kg/injection, schedule: Q01DX001 (ip), vehicle: saline with Tween-80) 370 % of control; (endpoint: median survival time, dose: 24.0 mg/kg/injection, schedule: Q01DX001 (ip), vehicle: saline with Tween-80) 171 % of control and 326 % of control; (endpoint: median survival time, dose: 25.0 mg/kg/injection, schedule: Q01DX001 (ip), vehicle: saline with Tween-80) 111 % of control. The T/C (endpoint: median survival time, dose: 50.0 mg/kg/injection, schedule: Q01DX001 (ip), vehicle: saline with Tween-80) is 91 % of control.
Turning to `CC1CCC(=O)C2(C)CC3OC(=O)C(C)C3C=C12` (stereo not given), the T/C is, setting by setting: under setting [1], 94 % of control; under setting [2], 93 % of control; under setting [3], 86 % of control.
As for `C1CSCCSCCCSCCSC1`, the T/C (endpoint: mean survival time, dose: 50.0 mg/kg/injection, schedule: Q04DX002 (ip), vehicle: saline with Tween-80) was 96 % of control; the T/C (endpoint: mean survival time, dose: 100.0 mg/kg/injection, schedule: Q04DX002 (ip), vehicle: saline with Tween-80) was 108 % of control; the T/C (endpoint: mean survival time, dose: 200.0 mg/kg/injection, schedule: Q04DX002 (ip), vehicle: saline with Tween-80) is 101 % of control.
As for `CCOC(=O)NC(=S)Nc1ncn[nH]1`, the T/C (endpoint: mean survival time, dose: 25.0 mg/kg/injection, schedule: Q01DX001 (ip), vehicle: carboxymethylcellulose (CMC)) was 102 % of control; the T/C (endpoint: mean survival time, dose: 50.0 mg/kg/injection, schedule: Q01DX001 (ip), vehicle: carboxymethylcellulose (CMC)) is 97 % of control; the T/C (endpoint: mean survival time, dose: 100.0 mg/kg/injection, schedule: Q01DX001 (ip), vehicle: carboxymethylcellulose (CMC)) was 97 % of control; the T/C (endpoint: mean survival time, dose: 200.0 mg/kg/injection, schedule: Q01DX001 (ip), vehicle: carboxymethylcellulose (CMC)) is 93 % of control.

For the origin of these results see PubChem BioAssay AID256 (DTP/NCI, 2004).
